Patent publication US8318757B2, “Substituted isoxazoline compound and pest control agent” (Nissan Chemical Industries, Ltd., priority 2007, dated 2012)
Where two headings read alike, the source gives them in different places.

Key:
Format in all cases: in vivo
Nilaparvata lugens = experiment: whole plant or invertebrate; details: 144 h
Procedure: (§1) A 10% emulsifiable concentrate of the compound of the present invention (depending on the type of the compound, a 10% wettable powder was subjected to the test) was diluted with water containing a spreader to prepare a drug solution in a concentration of 500 ppm. In this drug solution, a leaf sheath of rice was immersed for about 10 seconds and was air-dried and then put into a test tube. In the test tube, five 2 instar larvae of Nilaparvata lugens per test tube were released and the test tube was capped with a sponge and stored in a thermostatic room of 25° C. The number of killed larvae after 6 days was measured and the mortality was calculated from the same calculation formula as that in Test Example 1. Here, the test was carried out on the duplicate samples.

Myzus persicae = experiment: whole plant or invertebrate; details: 144 h
Procedure: In a glass petri dish having an inner diameter of 3 cm, a wet absorbent cotton was laid and on the cotton, a leaf of cabbage cut out so as to have the same diameter as the inner diameter of the petri dish was laid, followed by releasing four apterous imagines of Myzus persicae on the leaf. After one day, a 10% emulsifiable concentrate of the compound of the present invention (depending on the type of the compound, a 10% wettable powder was subjected to the test) was diluted with water containing a spreader to prepare a drug solution in a concentration of 500 ppm. The drug solution was sprayed using a rotary spray tower (2.5 mg/cm^2), and the petri dish was capped and stored in a thermostatic room of 25° C. The number of killed imagines after 6 days was measured and the mortality was calculated from the same calculation formula as that in Test Example 1. Here, the test was carried out on the duplicate samples.

[1] = test system: Frankliniella occidentalis; experiment: whole plant or invertebrate; details: in Phaseolus vulgaris, 48 h
Procedure: (§2) In a styrol cup having an inner diameter of 7 cm, a wet filtration paper was laid and on the paper, a leaf of kidney bean cut out so as to have the same diameter as the inner diameter of the cup was laid, followed by inoculating ten 1 instar larvae of Frankliniella occidentalis per leaf with the leaf. A 10% emulsifiable concentrate of the compound of the present invention (depending on the type of the compound, a 10% wettable powder was subjected to the test) was diluted with water containing a spreader to prepare a drug solution in a concentration of 500 ppm. The drug solution was sprayed using a rotary spray tower in an amount of 2.5 mL per styrol cup, and the cup was capped and stored in a thermostatic room of 25° C. The number of killed larvae after 2 days was measured and the mortality was calculated from the same calculation formula as that in Test Example 1. Here, the test was carried out on the duplicate samples.

Tetranychus urticae = experiment: whole plant or invertebrate; details: in Phaseolus vulgaris, 144 h
Procedure: as §2, with “ten” for “ten 1 instar”, “of Tetranychus urticae” for “of Frankliniella occidentalis”, “after 6” for “after 2”

Liriomyza trifolii = experiment: whole plant or invertebrate; details: 144 h
Procedure: as §1, with “leaf” for “leaf sheath”, “kidney bean which was cut out to a diameter of 7 cm, on which Liriomyza trifolii laid eggs (10 eggs/leaf)” for “rice”, “laid on” for “put into”, “wet filtration paper laid in a styrol cup having an inner diameter” for “test tube. In the test tube, five 2 instar larvae”, “7 cm. The styrol cup” for “Nilaparvata lugens per test tube were released and the test tube”, “capped” for “capped with a sponge”

Homona magnanima = experiment: Mortality Test for Homona magnanima; details: in Brassica oleracea, 144 h
Procedure: (§3) A 10% emulsifiable concentrate of the compound of the present invention (depending on the type of the compound, a 10% wettable powder was subjected to the test) was diluted with water containing a spreader to prepare a drug solution in a concentration of 100 ppm. In this drug solution, a leaf of cabbage was immersed for about 10 seconds and was air-dried and then put into a petri dish. In the petri dish, five 2 instar larvae of Homona magnanima per petri dish were released and the petri dish was capped and stored in a thermostatic room of 25° C. The number of killed larvae after 6 days was measured and the mortality was calculated from the same calculation formula as that in Test Example 1. Here, the test was carried out on the duplicate samples.

Bemisia argentifolii = experiment: whole plant or invertebrate; details: 144 h
Procedure: In a styrol cup having an inner diameter of 7 cm, a wet filtration paper was laid and on the paper, a cut-out leaf of tomato on which Bemisia argentifolii laid eggs (10 eggs/leaf) was laid. A 10% emulsifiable concentrate of the compound of the present invention (depending on the type of the compound, a 10% wettable powder was subjected to the test) was diluted with water containing a spreader to prepare a drug solution in a concentration of 500 ppm. The drug solution was sprayed using a rotary spray tower in an amount of 2.5 mL per styrol cup, and the cup was capped and stored in a thermostatic room of 25° C. The number of killed larvae after 6 days was measured and the mortality was calculated from the same calculation formula as that in Test Example 1. Here, the test was carried out on the duplicate samples.

Aculops pelekassi = experiment: whole plant or invertebrate; details: 144 h
Procedure: as §2, with “of mandarin orange” for “of kidney bean”, “ten” for “ten 1 instar”, “of Aculops pelekassi” for “of Frankliniella occidentalis”, “of 100” for “of 500”, “after 6” for “after 2”

Spodoptera exigua = experiment: Mortality Test for Spodoptera exigua; details: 144 h
Procedure: as §3, with “Spodoptera exigua” for “Homona magnanima”

Spodoptera litura = experiment: whole plant or invertebrate; details: 144 h
Procedure: as §3, with “10” for “100”, “Spodoptera litura” for “Homona magnanima”

Plutella xylostella = experiment: whole plant or invertebrate; details: 144 h
Procedure: as §3, with “10” for “100”, “Plutella xylostella” for “Homona magnanima”, “following” for “same”, “formula: Mortality (%)=(number of killed insect/number of released insect)×100.” for “formula as that in Test Example 1.”

[2] = drug solution 100 ppm (mark *), cabbage leaf immersed, 2 instar larvae, after 6 days, read-out: mortality

CCS(=O)(=O)CC(=O)N(C)Cc1ccc(C2=NOC(c3cc(Cl)c(Cl)c(Cl)c3)(C(F)(F)F)C2)cc1Cl (centres unmarked) [2-005, N-[2-chloro-4-[5-(3,4,5-trichlorophenyl)-5-trifluoromethyl-4,5-dihydroisoxazole-3-yl]phenyl]methyl-2-ethylsulfonyl-N-methylacetamide]
≥ 80%: mortality at 500 ppm (Nilaparvata lugens; in Oryza sativa) | mortality at 500 ppm (Myzus persicae; in Brassica oleracea) | mortality at 500 ppm [1] | mortality at 500 ppm (Tetranychus urticae) | mortality at 500 ppm (Liriomyza trifolii; in Phaseolus vulgaris) | mortality at 100 ppm (Homona magnanima) | mortality at 500 ppm (Bemisia argentifolii; in Solanum lycopersicum)

CCSCC(=O)N(C)Cc1ccc(C2=NOC(c3cc(Cl)c(Cl)c(Cl)c3)(C(F)(F)F)C2)cc1Cl (centres unmarked) [2-002, N-[2-chloro-4-[5-(3,4,5-trichlorophenyl)-5-trifluoromethyl-4,5-dihydroisoxazole-3-yl]phenyl]methyl-2-ethylthio-N-methylacetamide]
≥ 80%: mortality at 500 ppm (Nilaparvata lugens; in Oryza sativa) | mortality at 500 ppm (Myzus persicae; in Brassica oleracea) | mortality at 500 ppm [1] | mortality at 500 ppm (Tetranychus urticae) | mortality at 100 ppm (Homona magnanima) | mortality at 500 ppm (Bemisia argentifolii; in Solanum lycopersicum)

CS(CC(=O)NCc1ccc(C2=NOC(c3cc(Cl)c(Cl)c(C(F)(F)F)c3)(C(F)(F)F)C2)cc1Br)=NC(=O)C(F)(F)F (centres unmarked) [1-102, N-[2-bromo-4-[5-[3,4-dichloro-5-(trifluoromethyl)phenyl]-5-trifluoromethyl-4,5-dihydroisoxazole-3-yl]phenyl]methyl-2-[N-(trifluoroacetyl)methylsulfinimidoyl]acetamide]
≥ 80%: mortality at 100 ppm (Aculops pelekassi) | mortality at 100 ppm (Spodoptera exigua; in Brassica oleracea) | mortality at 10 ppm (Spodoptera litura; in Brassica oleracea) | mortality at 10 ppm (Plutella xylostella; in Brassica oleracea)

CS(=O)(=O)CC(=O)NCc1ccc(C2=NOC(c3cc(Br)cc(C(F)(F)F)c3)(C(F)(F)F)C2)cc1Cl (centres unmarked) [1-113, N-[4-[5-[3-bromo-5-(trifluoromethyl)phenyl]-5-trifluoromethyl-4,5-dihydroisoxazole-3-yl]-2-chlorophenyl]methyl-2-(methylsulfonyl)acetamide]
≥ 80%: mortality at 500 ppm (Nilaparvata lugens; drug solution 500 ppm, rice leaf sheath immersed, 2 instar larvae, after 6 days, read-out: mortality) | mortality at 500 ppm (Myzus persicae; drug solution 500 ppm sprayed, cabbage leaf, apterous imagines, after 6 days, read-out: mortality) | mortality at 100 ppm (Aculops pelekassi; drug solution 100 ppm sprayed, mandarin orange leaf, larvae, after 6 days, read-out: mortality) | mortality at 500 ppm (Liriomyza trifolii; drug solution 500 ppm, kidney bean leaf with eggs immersed, after 6 days, read-out: mortality) | mortality at 100 ppm (Homona magnanima) | mortality at 100 ppm (Spodoptera exigua; drug solution 100 ppm, cabbage leaf immersed, 2 instar larvae, after 6 days, read-out: mortality) | mortality at 100 ppm (Spodoptera litura; [2]) | mortality at 100 ppm (Plutella xylostella; [2]) | mortality at 500 ppm (Bemisia argentifolii; drug solution 500 ppm sprayed, tomato leaf with eggs, after 6 days, read-out: mortality)
